In series [1] the test system is methionine cycle metabolites in TS cells. Put plainly: LC/MS abundance of methionine cycle metabolites 48 h after inhibitor treatment. In kind it is cell-based, human. As to conditions: 48 h FIDAS5 (10 μM), normalized to DMSO. As to the method: Cis-platinum (cis-Diammineplatinum(II) dichloride) and MG132 (10 μM final concentration) was purchased from Sigma, FIDAS-5 (final concentration of 10 μM in culture medium) from Merck Millipore and D9 (final concentration of 500 nM in culture medium).
For suspension cell culture, 10 million cells per sample were obtained and quenched with 4 volumes of ice-cold 150 mM sodium chloride solution. The cell pellets were collected by centrifugation of the quenched samples at 3000 g for 5 min at 4° C. and the supernatant was aspirated and discarded. For adherent cell culture, the media was gently aspirated and the cells on the surfaces of the well plates were gently washed with ice-cold 150 mM sodium chloride solution thrice. Ice-cold sodium chloride was added to the plate and a cell scraper was used to release adherent cells from the plate surface. The cell pellets were collected as described earlier and kept on ice. […]
For targeted LC/MS analysis, the chromatographic peak integration was performed using Targetlynx software (Waters Corp). In addition, for the ^13C-labeled methionine pulse-chase experiments, the atomic percent excess (APE) for each species was calculated and natural abundance corrected from an isotopomer matrix accounting for the presence of natural abundance carbons distributed throughout each possible parent/daughter ion combination (Table 3). […]

The subject of the next series is TS cells (lung TICs). Put plainly: Tumor formation in NSG mice after transplantation of pre-treated TS cells. In kind it is in vivo. As to conditions: 500,000 TS cells treated 48 h with inhibitor, transplanted into NSG mice, 6 weeks. From the text:
5×10^5 single cells were mixed in a 1:1 mixture of serum free DMEM/F12 and Matrigel (BD) and injected subcutaneously into the flanks of 4-6 week old male and female NOD.Cg-Prkdc^scid Il2rg^tm1wjl SzJ (Jackson Laboratories). About 6 weeks later, or when tumor sizes exceed 2 cm in length, mice were sacrificed and tumors harvested for analysis. All animal experiments were approved by the Agency for Science Technology and Research Singapore—Biological Resource Centre. Mice were randomized by sex.
To evaluate the methionine cycle as a therapeutic target in lung TICs, small molecule inhibitors that target enzymes within this pathway were employed, mimicking the effects of short-term methionine starvation (FIG. 5a). two inhibitors known to perturb methionine cycle activity and cellular methylation levels: 1) MAT2A inhibitor, FIDAS5; and 2) SAHH inhibitor, D9, which is an analog of DZNep. In a manner similar to amino acid starvation studies, TS cells were exposed transiently to the compounds for 48 h in culture and were immediately used for downstream tumorigenesis assays.

For series [2], the system named is TS cells. Nature of the series: Cell proliferation assay (CellTiter-Glo) of TS cells. In kind it is cell-based, human. How it is done:
(§1) Cells were seeded into 96-well plates at a density of 2,000 cells/well for TS cells and 500 cells/well for Adh cells. The relative number of viable cells was determined by the quantification of ATP using the CellTiter-Glo Luminescent Cell Viability Assay (Promega) system.
(Cellular ATP, detected with luciferase, serves as a proxy for viable cell number.)

Series [3] deals with TS cells. Put plainly: Apoptosis assay (Annexin V/PI) of inhibitor treated TS cells. In kind it is cell-based, human. As to conditions: transient exposure. The text has this: 10^6 cells were stained with FITC Annexin V and PI, and analysed for apoptosis by flow cytometry using an LSRII Cell Analyzer (BD) according to manufacturer's instructions.
The next series has as its system Adh cells. Nature of the series: Proliferation of Adh cells grown in FIDAS5-containing media. In kind it is cell-based, human. How it is done:
as §1

Series [4] deals with non-neoplastic cell lines. Nature of the series: Proliferation of non-neoplastic (untransformed) cell lines in FIDAS5-containing media. In kind it is cell-based. As to the method: as §1
Series [5] relates to TS cells. Nature of the series: Orthotopically implanted GFP-expressing TS cells in lungs of NSG mice. In kind it is in vivo. The conditions noted are these: orthotopic TS cells, transient treatment for 3 days, 5 weeks post implantation. From the text: GFP expressing 1.5×10^6 single TS cells (transduced with PLL3.7 vector) with suspended in tumor sphere media and injected intravenously through tail-vein into 4-6 week old male and female NOD.Cg-Prkdc^scid Il2rg^tm1wjl SWJ (Jackson Laboratories) mice. Mice were continuously monitored and then sacrificed at 5 weeks post injection. Lungs were harvested, fixed in 4% paraformaldehyde and embedded in paraffin for subsequent analysis. Anti-GFP (ab13970) antibody from Abcam and Alexa-Fluor Goat 488 anti-Chicken antibody (A-11039; ThermoFisher) was used to visualize and quantify GFP-positive lesions using immunofluorescence protocol outlined above. Mice were randomized by sex.
Since FIDAS5 appeared to more specifically disrupt the methionine cycle and inhibit cellular methylation activities compared to D9, it was sought to test whether its systemic delivery could impact the tumorigenic potential of TS cells. These highly tumorigenic cells were first subcutaneously implanted into NSG mice and FIDAS5 (40 mg/kg) or corn oil carrier was immediately administered via intraperitoneal injection for three consecutive days. After 6 weeks, mice transiently treated with FIDAS5 produced tumors that were much smaller than carrier-treated controls. […]

Each structure is given as a SMILES string.

For `CNc1ccc(/C=C/c2c(F)cccc2Cl)cc1` [FIDAS5], in series [1], the “reduction of intracellular levels of SAH” value was about 10 fold and the “reduction of intracellular levels of SAM” value is about 10 fold. In the series with TS cells (lung TICs), the tumor-forming ability entry is reported as “severely diminished”. For the same compound, the growth capacity result in the series on TS cells [2] (TS cells exposed to FIDAS5 for six days, then medium without FIDAS5) is “completely ablated”. In addition, the long-term proliferation ability result with TS cells [2] (TS cells, transient 48 h exposure then complete media) was “did not negatively impact”. In addition, the apoptosis result with TS cells [3] was “did not negatively impact their long-term proliferation ability or trigger apoptosis”. Besides, the “proliferation in FIDAS5-containing media” value with Adh cells is “far less affected”. In series [4], the “proliferation in FIDAS5-containing media” value is listed as “far less affected”. Moreover, the “number of pulmonary lesions” value in the series with TS cells [5] was “decreased number of pulmonary lesions”.

(Values after patent US11872230B2, “Method of treating a methionine-dependent cancer” (Agency for Science, Technology and Research, priority 2018, dated 2024).)
